These are literature values, as cited in patent publication US6645930B1, “Clean room wipes for neutralizing caustic chemicals” (EKC Technology, Inc., priority 2000, dated 2003).

For series [1] the following is noted: for pKa3: third ionization constant; for pKa1: first ionization constant.
For series [2] the following is noted: at 25° C.

As to `O=C(O)CC(O)(CC(=O)O)C(=O)O` [Citric, citric acid], the pKa3 in series [1] was 6.9.

Regarding `O=C(O)c1cc(O)c(O)c(O)c1` [Gallic, gallic acid], in series [1], the pKa1 is 4.2 and the pKa3 is on record as 8.9.

For `O=C(O)[C@H](O)[C@@H](O)[C@H](O)[C@H](O)CO` [Gluconic, gluconic acid], in series [1], the pKa1 was 3.5. Besides, the pKa2 in series [1] (second ionization constant) is on record as 4.7.

On to `CC(O)CO` (stereo not drawn) [propylene glycol], for which the vapor pressure in series [2] is recorded as 0.02 kPascal.
